Values quoted from earlier work as cited in PubChem BioAssay AID1259409 (Chemical Carcinogenesis Research Information System (CCRIS), 2018).

Test system: rodent chemically induced tumor inhibition, incidence and multiplicity
Experiment: CCRIS tumor inhibitor studies

## O=C(/C=C/c1ccccc1)c1ccccc1
Carcinogen: 4-NITROQUINOLINE-1-OXIDE, 56-57-5, Dose [Inhibitor]: 0, 500 PPM IN DIET FOR 10 WK BEGINNING 1 WK PRIOR TO CARCINOGEN DOSE (STUDY DURATION: 32 WK), Route [Inhibitor]: ORAL, Species: RAT, Strain/Sex: F344/MALE, Target Tissue: Type of Lesion: TONGUE: CARCINOMA, Dose [Carcinogen]: 20 PPM IN DRINKING WATER FOR 8 WK, Promoter: NONE USED
  tumour outcome (control, treated, inhibition, significance): 9/15 (60%), 3/16 (19%), 68%, p<0.05
Carcinogen: 4-NITROQUINOLINE-1-OXIDE, 56-57-5, Dose [Inhibitor]: 0, 500 PPM IN DIET FOR 10 WK BEGINNING 1 WK PRIOR TO CARCINOGEN DOSE (STUDY DURATION: 32 WK), Route [Inhibitor]: ORAL, Species: RAT, Strain/Sex: F344/MALE, Target Tissue: Type of Lesion: TONGUE: PAPILLOMA, Dose [Carcinogen]: 20 PPM IN DRINKING WATER FOR 8 WK, Promoter: NONE USED
  tumour outcome (control, treated, inhibition, significance): 4/15 (27%), 1/16 (6%), 78%, not significant
Carcinogen: 4-NITROQUINOLINE-1-OXIDE, 56-57-5, Dose [Inhibitor]: 0, 500 PPM IN DIET FOR 22 WK BEGINNING 1 WK POST CARCINOGEN TREATMENT (STUDY DURATION: 32 WK), Route [Inhibitor]: ORAL, Species: RAT, Strain/Sex: F344/MALE, Target Tissue: Type of Lesion: TONGUE: CARCINOMA, Dose [Carcinogen]: 20 PPM IN DRINKING WATER FOR 8 WK, Promoter: NONE USED
  tumour outcome (control, treated, inhibition, significance): 9/15 (60%), 3/16 (19%), 68%, p<0.05
Carcinogen: 4-NITROQUINOLINE-1-OXIDE, 56-57-5, Dose [Inhibitor]: 0, 500 PPM IN DIET FOR 22 WK BEGINNING 1 WK POST CARCINOGEN TREATMENT (STUDY DURATION: 32 WK), Route [Inhibitor]: ORAL, Species: RAT, Strain/Sex: F344/MALE, Target Tissue: Type of Lesion: TONGUE: PAPILLOMA, Dose [Carcinogen]: 20 PPM IN DRINKING WATER FOR 8 WK, Promoter: NONE USED
  tumour outcome (control, treated, inhibition, significance): 4/15 (27%), 0/16 (0%), 100%, p<0.05
Carcinogen: BENZO[A]PYRENE, 50-32-8, Dose [Inhibitor]: 0, 0.2 MG/G IN DIET FOR 21 WK BEGINNING 1 WK POST LAST CARCINOGEN DOSE (STUDY DURATION: 23 WK), Route [Inhibitor]: ORAL, Species: MOUSE, Strain/Sex: STRAIN-A/FEMALE, Target Tissue: Type of Lesion: FORESTOMACH: TUMOR, Dose [Carcinogen]: 2 MG IN 0.2 ML COTTONSEED OIL ONCE EACH ON DAYS 1, 3 AND 7 OF STUDY, Promoter: NONE USED
  tumour outcome (control, treated, inhibition, significance): 93%, 100%, -8%, not significant
Carcinogen: BENZO[A]PYRENE, 50-32-8, Dose [Inhibitor]: 0, 1 MG/G IN DIET FOR 21 WK BEGINNING 1 WK POST LAST CARCINOGEN DOSE (STUDY DURATION: 23 WK), Route [Inhibitor]: ORAL, Species: MOUSE, Strain/Sex: STRAIN-A/FEMALE, Target Tissue: Type of Lesion: FORESTOMACH: TUMOR, Dose [Carcinogen]: 2 MG IN 0.2 ML COTTONSEED OIL ONCE EACH ON DAYS 1, 3 AND 7 OF STUDY, Promoter: NONE USED
  tumour outcome (control, treated, inhibition, significance): 93%, 100%, -8%, not significant
Carcinogen: BENZO[A]PYRENE, 50-32-8, Dose [Inhibitor]: 0, 5 MG/G IN DIET FOR 21 WK BEGINNING 1 WK POST LAST CARCINOGEN DOSE (STUDY DURATION: 23 WK), Route [Inhibitor]: ORAL, Species: MOUSE, Strain/Sex: STRAIN-A/FEMALE, Target Tissue: Type of Lesion: FORESTOMACH: TUMOR, Dose [Carcinogen]: 2 MG IN 0.2 ML COTTONSEED OIL ONCE EACH ON DAYS 1, 3 AND 7 OF STUDY, Promoter: NONE USED
  tumour outcome (control, treated, inhibition, significance): 93%, 100%, -8%, not significant
Carcinogen: BENZO[A]PYRENE, 50-32-8, Dose [Inhibitor]: 0, 10 MG/G IN DIET FOR 21 WK BEGINNING 1 WK POST LAST CARCINOGEN DOSE (STUDY DURATION: 23 WK), Route [Inhibitor]: ORAL, Species: MOUSE, Strain/Sex: STRAIN-A/FEMALE, Target Tissue: Type of Lesion: FORESTOMACH: TUMOR, Dose [Carcinogen]: 2 MG IN 0.2 ML COTTONSEED OIL ONCE EACH ON DAYS 1, 3 AND 7 OF STUDY, Promoter: NONE USED
  tumour outcome (control, treated, inhibition, significance): 93%, 100%, -8%, not significant
Carcinogen: N-METHYL-N-NITROSOUREA, 684-93-5, Dose [Inhibitor]: 0, 5 MG/G IN DIET FOR 17 WK BEGINNING 1 WK POST CARCINOGEN DOSE (STUDY DURATION: 18 WK), Route [Inhibitor]: ORAL, Species: RAT, Strain/Sex: SPRAGUE-DAWLEY/FEMALE, Target Tissue: Type of Lesion: MAMMARY GLAND: TUMOR, Dose [Carcinogen]: 50 MG/KG BW ONCE, Promoter: NONE USED
  tumour outcome (control, treated, inhibition, significance): 71%, 36%, 49%, p=0.058
Carcinogen: N-METHYL-N-NITROSOUREA, 684-93-5, Dose [Inhibitor]: 0, 5 MG/G IN DIET STARTING 4 WK POST CARCINOGEN DOSE THEN FED FOR 3 WK ALTERNATING WITH 3 WK ON CONTROL DIET FOR DURATIO, Route [Inhibitor]: ORAL, Species: RAT, Strain/Sex: SPRAGUE-DAWLEY/FEMALE, Target Tissue: Type of Lesion: MAMMARY GLAND: TUMOR, Dose [Carcinogen]: 50 MG/KG BW ONCE, Promoter: NONE USED
  tumour outcome (control, treated, inhibition, significance): 75%, 38%, 49%, p=0.033

## O=C(/C=C/c1ccc(O)c(O)c1)O[C@@H]1C[C@](O)(C(=O)O)C[C@@H](O)[C@H]1O
Carcinogen: 4-NITROQUINOLINE-1-OXIDE, 56-57-5, Dose [Inhibitor]: 0, 250 PPM IN DIET FOR 7 WK BEGINNING 1 WK PRIOR TO START OF CARCINOGEN TREATMENT (STUDY DURATION: 32 WK), Route [Inhibitor]: ORAL, Species: RAT, Strain/Sex: F344/MALE, Target Tissue: Type of Lesion: TONGUE: PAPILLOMA, Dose [Carcinogen]: 20 PPM IN DRINKING WATER FOR 5 WK, Promoter: NONE USED
  tumour outcome (control, treated, inhibition, significance): 1/15 (7%), 1/15 (7%), 0%, not significant
Carcinogen: 7,12-DIMETHYLBENZ[A]ANTHRACENE, 57-97-6, Dose [Inhibitor]: 10 UMOL IN 200 µL ACETONE/DMSO (90:10) 2/WK FOR 19 WK BEGINNING 1 WK POST CARCINOGEN DOSE (STUDY DURATION: 20 WK), Route [Inhibitor]: DERMAL, Species: MOUSE, Strain/Sex: CD-1/FEMALE, Target Tissue: Type of Lesion: SKIN: PAPILLOMA, Dose [Carcinogen]: 200 NMOL IN 200 µL ACETONE ONCE, Promoter: 12-O-TETRADECANOYLPHORBOL-13-ACETATE, 16561-29-8
  tumour outcome (control, treated, inhibition, significance): 68%, 47%, 31%, not calculated
Carcinogen: 7,12-DIMETHYLBENZ[A]ANTHRACENE, 57-97-6, Dose [Inhibitor]: 20 UMOL IN 200 µL ACETONE/DMSO (90:10) 2/WK FOR 19 WK BEGINNING 1 WK POST CARCINOGEN DOSE (STUDY DURATION: 20 WK), Route [Inhibitor]: DERMAL, Species: MOUSE, Strain/Sex: CD-1/FEMALE, Target Tissue: Type of Lesion: SKIN: PAPILLOMA, Dose [Carcinogen]: 200 NMOL IN 200 µL ACETONE ONCE, Promoter: 12-O-TETRADECANOYLPHORBOL-13-ACETATE, 16561-29-8
  tumour outcome (control, treated, inhibition, significance): 68%, 27%, 60%, not calculated
Carcinogen: N-METHYL-N-NITROSOUREA [684-93-5], Dose [Inhibitor]: 250 PPM IN DIET FOR 22 WK BEGINNING 1 WK POST LAST CARCINOGEN DOSE (STUDY DURATION: 35 WK), Route [Inhibitor]: ORAL, Species: RAT, Strain/Sex: F344/MALE, Target Tissue: Type of Lesion: GLANDULAR STOMACH: ADENOCARCINOMA, Dose [Carcinogen]: 400 PPM IN DRINKING WATER FOR 12 WK (STUDY DURATION: 35 WK), Promoter: NONE
  tumour outcome (control, treated, inhibition, significance): 12/20 (60.0%), 4/17 (23.5%), 61%, p<0.03
Carcinogen: N-METHYL-N-NITROSOUREA [684-93-5], Dose [Inhibitor]: 500 PPM IN DIET FOR 22 WK BEGINNING 1 WK POST LAST CARCINOGEN DOSE (STUDY DURATION: 35 WK), Route [Inhibitor]: ORAL, Species: RAT, Strain/Sex: F344/MALE, Target Tissue: Type of Lesion: GLANDULAR STOMACH: ADENOCARCINOMA, Dose [Carcinogen]: 400 PPM IN DRINKING WATER FOR 12 WK (STUDY DURATION: 35 WK), Promoter: NONE
  tumour outcome (control, treated, inhibition, significance): 12/20 (60.0%), 7/21 (33.3%), 45%, not significant
Carcinogen: N-NITROQUINOLINE-1-OXIDE, 56-57-5, Dose [Inhibitor]: 0, 250 PPM IN DIET FOR 7 WK BEGINNING 1 WK PRIOR TO START OF CARCINOGEN TREATMENT (STUDY DURATION: 32 WK), Route [Inhibitor]: ORAL, Species: RAT, Strain/Sex: F344\MALE, Target Tissue: Type of Lesion: TONGUE: CARCINOMA, Dose [Carcinogen]: 20 PPM IN DRINKING WATER FOR 5 WK, Promoter: NONE USED
  tumour outcome (control, treated, inhibition, significance): 9/15 (60%), 1/15 (7%), 88%, p=0.0025

## Brc1cc2c(cc1Br)Oc1cc(Br)c(Br)cc1O2
Carcinogen: 7,12-DIMETHYLBENZ[A]ANTHRACENE, 57-97-6, Dose [Inhibitor]: 0, 17 NMOL 2/WK APPLIED 1 HR PRIOR TO EACH PROMOTER DOSE FOR 10 WK (STUDY DURATION: 11 WK), Route [Inhibitor]: DERMAL, Species: MOUSE, Target Tissue: Type of Lesion: SKIN: TUMOR, Dose [Carcinogen]: 390 NMOL ONCE, Promoter: 12-O-TETRADECANOYLPHORBOL-13-ACETATE, 16561-29-8
  tumour outcome (control, treated, inhibition, significance): 100%, 0%, 100%, not calculated
